Measurements as given in the supplement of paper PMC8149375.

Experiments:
Settings in all cases: treatment: drug + dasatinib (fixed dose, not stated); 5 days
TK-10 [1] = assay: GI50 of drug in presence of dasatinib; higher = less potent
Protocol: (§1)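 Primary HTS combination arm: 8 RCC cell lines treated with 8 doses (up to 10 uM) of each library drug plus a fixed dose of dasatinib (dose not stated) for 5 days; viability read by CellTiter-Glo and normalised to DMSO. GI50 was fitted with XLfit, AUC is the area under the dose-response curve, and minimum viability is the lowest fraction of DMSO viability across doses.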

UO-31 [2] = assay: as above
Protocol: as §1

SN12C [3] = assay: as above
Protocol: as §1

769-P [4] = assay: as above
Protocol: as §1

786-O [5] = assay: as above
Protocol: as §1

CAKI-1 [6] = assay: as above
Protocol: as §1

A498 [7] = assay: as above
Protocol: as §1

TK-10 [8] = assay: minimum viability across doses, drug + dasatinib, relative to DMSO (fraction); higher = less growth inhibition
Protocol: as §1

UO-31 [9] = assay: as above
Protocol: as §1

SN12C [10] = assay: as above
Protocol: as §1

ACHN [11] = assay: as above
Protocol: as §1

769-P [12] = assay: as above
Protocol: as §1

786-O [13] = assay: as above
Protocol: as §1

CAKI-1 [14] = assay: as above
Protocol: as §1

A498 [15] = assay: as above
Protocol: as §1

TK-10 [16] = assay: AUC of dose-response viability curve, drug + dasatinib, normalised to DMSO (arbitrary (AUC of normalised viability)); higher = less growth inhibition
Protocol: as §1

UO-31 [17] = assay: as above
Protocol: as §1

SN12C [18] = assay: as above
Protocol: as §1

ACHN [19] = assay: as above
Protocol: as §1

769-P [20] = assay: as above
Protocol: as §1

786-O [21] = assay: as above
Protocol: as §1

CAKI-1 [22] = assay: as above
Protocol: as §1

A498 [23] = assay: as above
Protocol: as §1

GI50 of drug (786-O [5]) | Compound | GI50 of drug (TK-10 [1]) | GI50 of drug (UO-31 [2]) | GI50 of drug (SN12C [3]) | GI50 of drug (769-P [4]) | GI50 of drug (CAKI-1 [6]) | GI50 of drug (A498 [7]) | minimum viability across doses (TK-10 [8]) | minimum viability across doses (UO-31 [9]) | minimum viability across doses (SN12C [10]) | minimum viability across doses (ACHN [11]) | minimum viability across doses (769-P [12]) | minimum viability across doses (786-O [13]) | minimum viability across doses (CAKI-1 [14]) | minimum viability across doses (A498 [15]) | AUC of dose-response viability curve (TK-10 [16]) | AUC of dose-response viability curve (UO-31 [17]) | AUC of dose-response viability curve (SN12C [18]) | AUC of dose-response viability curve (ACHN [19]) | AUC of dose-response viability curve (769-P [20]) | AUC of dose-response viability curve (786-O [21]) | AUC of dose-response viability curve (CAKI-1 [22]) | AUC of dose-response viability curve (A498 [23])
> 10 µM | CCO.N#CC(=C(/N)Sc1ccccc1N)/C(C#N)=C(\N)Sc1ccccc1N [U0126-EtOH] + Cc1nc(Nc2ncc(C(=O)Nc3c(C)cccc3Cl)s2)cc(N2CCN(CCO)CC2)n1 [dasatinib] | > 10 µM | > 10 µM | > 10 µM | > 10 µM | 6.71 µM | > 10 µM | 0.524 | 0.792 | 0.598 | 0.353 | 0.68 | 0.526 | 0.46 | 0.888 | 2.65 | 3.2 | 2.4 | 1.84 | 2.5 | 2.5 | 2.37 | 3.54
> 10 µM | NC(=O)c1ccc(N(C(N)=O)c2c(F)cccc2F)nc1-c1ccc(F)cc1F [VX-702] + Cc1nc(Nc2ncc(C(=O)Nc3c(C)cccc3Cl)s2)cc(N2CCN(CCO)CC2)n1 [dasatinib] | > 10 µM | > 10 µM | > 10 µM | > 10 µM | > 10 µM | > 10 µM | 0.598 | 1.12 | 0.685 | 0.409 | 0.627 | 0.547 | 0.649 | 0.887 | 2.39 | 4.36 | 2.54 | 1.87 | 2.4 | 2.23 | 2.43 | 3.52
> 10 µM | Cl.Cl.Clc1ccc(Nc2nnc(Cc3ccncc3)c3ccccc23)cc1 [Vatalanib dihydrochloride (PTK787)] + Cc1nc(Nc2ncc(C(=O)Nc3c(C)cccc3Cl)s2)cc(N2CCN(CCO)CC2)n1 [dasatinib] | > 10 µM | > 10 µM | > 10 µM | 7.92 µM | 2.76 µM | > 10 µM | 0.666 | 0.834 | 0.632 | 0.474 | 0.433 | 0.549 | 0.217 | 0.729 | 2.63 | 3.35 | 2.32 | 1.91 | 2.3 | 2.65 | 2.04 | 3.2
